Data taken from patent US20250057928A1, “VACCINE COMPOSITION FOR INDUCING ANTI-IL-23 ANTIBODY” (OSAKA UNIVERSITY, priority 2021, published 2025).
Where no end group is shown, it is not given here.

Tests used:
[1] = tested on: recombinant human IL-23 protein (rhIL-23); assay: Binding of mouse antiserum to rhIL-23, ELISA; details: rhIL-23 ELISA; antiserum of BALB/c mice 6 weeks after initial administration, 0.5 mg/body with Alhydrogel
Method: (§1) AJP001 conjugated peptide (SEQ ID NOs: 6-37) was dissolved in physiological saline, mixed with an equal amount of 2% Alhydrogel (invivogen), and this was intradermally administered to BALB/c mice (female, 6-week-old, N=5-6) at 0.5 mg/body 3 times at two-week intervals. Blood was collected before administration and at the time point of 6 weeks after initial administration, and the antibody titer (GMT) to each epitope sequence and binding ability to recombinant human IL-23 protein (rhIL-23) (Peprotech) were measured by the ELISA method (same method as in Example 1). The binding to rhIL-23 was evaluated by a binding ratio to normal serum by calculating the ratio of the absorbance of a well added with normal mouse serum to the absorbance of a well added with antiserum derived from a mouse administered with each AJP001 conjugated peptide (SEQ ID NOs: 6-37). In addition, the neutralization activity of mouse antiserum was evaluated using an action on IL-17 production in rhIL-23 stimulated mouse splenocyte as an index. The spleen of normal BALB/c mouse (female, 5-week-old, N=3) was triturated using a syringe barrel and a cell strainer and washed with and suspended in HBSS (−). Erythrocytes were then removed using ACK Buffer (Thermo fisher scientific), and splenocytes were isolated. The splenocytes were prepared to 2.5×10^6 cells/mL with 10% FBS/1% penicillin/streptomycin/4 ng/mL rmIL-2-containing RPMI1640 medium (culture medium), and seeded in a 96 well plate at 100 μl/well. The antiserum (final concentration 15-fold) of the mice administered with each AJP001 conjugated peptide and rhIL-23 (final concentration 10 ng/ml) were added to the culture medium, reacted at 37° C. for 2 hr, added at 100 μL/well to a 96-well plate seeded with splenocytes, and cultured for 3 days in a 37° C./5% CO2 incubator. An untreated well and a control well to which normal mouse serum and rhIL-23 were added were provided. IL-17A/F in the culture supernatant was measured using Mouse IL-17A/F ELISA kit (R&D systems), the proportion (%) of IL-17 to normal serum was calculated from the IL-17 concentrations of untreated well (A), control well (B), and well (C) to which antiserum of the mice administered with each AJP001 conjugated peptide was added and according to the following formula, and the neutralization activity was evaluated.
AJP001 conjugated peptide (SEQ ID NO: 6) was dissolved in physiological saline and intradermally administered to BALB/c mice (female, 6-week-old, N=6) at 1 mg/body 3 times at two-week intervals, and blood was collected every 2 weeks until 8 weeks. The antibody titer (GMT) of all the collected sera and the binding ability to rhIL-23 of the serum at 6 weeks were measured by the ELISA method. In FIG. 5, “*” means P<0.05.

epitope peptide = assay: Antibody titer (GMT) of serum of mice administered AJP001 conjugated peptide, ELISA; type: in vivo, mouse; details: BALB/c mice, 0.5 mg/body intradermal with equal amount of 2% Alhydrogel, 3 times at two-week intervals; serum 6 weeks after initial administration; titer to each epitope sequence
Method: AJP001 conjugated peptide having one of the B cell epitope sequences of SEQ ID NOs: 1-5 was dissolved in physiological saline and intradermally administered twice to BALB/c mice (female, 6-week-old, N=5-6) at 0.5 mg/body at 2-week intervals. Blood was collected before administration and 5 weeks after the initial administration, and the antibody titer against each AJP001 conjugated peptide and the binding ability to recombinant mouse IL-23 protein (rmIL-23) were measured by the ELISA method. Specifically, a 96-well plate immobilized with an epitope peptide dissolved at 10 μg/mL in carbonate buffer was blocked with 5% skim milk/PBS, and then serum serially diluted with 5% skim milk/PBS was added, and the mixture was left standing at 4° C. overnight. After washing the wells with PBS-T, HRP-labeled anti-mouse IgG antibody (GE Healthcare) diluted with 5% skim milk/PBS was added and the mixture was shaken at room temperature for 3 hr. After washing the wells with PBS-T, TMB solution (SIGMA) was added, the wells were allowed to stand for 30 min in the dark, the reaction was stopped by adding 0.5M H2SO4, and the absorbance at 450 nm was measured using a plate reader. The serum dilution rate that gave 1/2 (OD=1.75) of the maximum absorbance was defined as the antibody titer, and the geometric mean titer: GMT was calculated from the individual values. Binding to IL-23 protein was measured by the ELISA method in the same manner as the antibody titer, using rmIL-23 (Antibodies-online GmbH) as the solid-phased antigen and goat serum for blocking.
AJP001 conjugated peptide (SEQ ID NO: 2) was dissolved in physiological saline and intradermally administered to BALB/c mice (female, 6-week-old, N=6) at 1 mg/body 3 times at two-week intervals, and blood was collected every 2 weeks until 8 weeks. The antibody titer (GMT) of all the collected sera and the binding ability to rmIL-23 of the serum at the time point of 6 weeks were measured by the ELISA method (same method as in Example 1). The antibody titer and the binding of the induced antibody to rmIL-23 at each time point are shown in FIGS. 2 (a) and (b), respectively.
as §1, with “An untreated well and a control well to which normal mouse serum and rhIL-23 were added were provided. IL-17A/F in the culture supernatant was measured using Mouse IL-17A/F ELISA kit (R&D systems), the proportion (%) of IL-17 to normal serum was calculated from the IL-17 concentrations of untreated well (A), control well (B), and well (C) to which antiserum of the mice administered with each AJP001 conjugated peptide was added and according to the following formula, and the neutralization activity was evaluated.” left out

[2] = tested on: IL-17 production in rhIL-23 stimulated mouse splenocyte; assay: Neutralization activity of mouse antiserum: IL-17 production in rhIL-23 stimulated mouse splenocyte; type: cell-based; details: antiserum final 15-fold, rhIL-23 10 ng/ml, 3 days culture; IL-17A/F ELISA
Method: as §1
Percentage of IL-17 to normal serum (%)=100×(C−A/B−A)

Row | Substance | binding to IL-23 (binding ratio to normal serum) [1] | antibody titer (GMT) (epitope peptide) | neutralization activity (percentage of IL-17 to normal serum (%)) [2] [%]
1 | 6 (SPSQPWQR; not fully specified (N-terminus); listed as Homo sapiens) [compound 6] | 4.40 | 12563 | 15.8
2 | 7 (APSQPWQR; not fully specified (N-terminus)) [compound 7] | 1.40 | 5417 | 4.2
3 | 8 (SASQPWQR; not fully specified (N-terminus)) [compound 8] | 1.37 | 3485 | 1.4
4 | 9 (SPAQPWQR; not fully specified (N-terminus)) [compound 9] | 1.01 | 4683 | 4.0
5 | 10 (SPSAPWQR; not fully specified (N-terminus)) [compound 10] | 1.03 | 19795 | 0.0
6 | 11 (SPSQAWQR; not fully specified (N-terminus)) [compound 11] | 1.55 | 10441 | 8.1
7 | 12 (SPSQPAQR; not fully specified (N-terminus)) [compound 12] | 1.12 | 48594 | 3.1
8 | 13 (SPSQPWAR; not fully specified (N-terminus)) [compound 13] | 1.11 | 3215 | 4.8
9 | 14 (SPSQPWQA; not fully specified (N-terminus)) [compound 14] | 1.23 | 3331 | 8.0
10 | 15 (PWQRPWQR; not fully specified (N-terminus)) [compound 15] | 1.16 | 458 | 10
11 | 16 (QWQRPWQR; not fully specified (N-terminus)) [compound 16] | 1.09 | 201 | 3.6
12 | 17 (SSSQPWQR; not fully specified (N-terminus)) [compound 17] | 1.26 | 6096 | 1.6
13 | 18 (STSQPWQR; not fully specified (N-terminus)) [compound 18] | 1.21 | 8211 | 0.0
14 | 19 (SPSQSWQR; not fully specified (N-terminus)) [compound 19] | 1.33 | 18311 | 2.4
15 | 20 (SPSQTWQR; not fully specified (N-terminus)) [compound 20] | 1.23 | 36347 | 5.8
16 | 21 (SSSQSWQR; not fully specified (N-terminus)) [compound 21] | 1.07 | 19793 | 6.9
17 | 22 (SSSQTWQR; not fully specified (N-terminus)) [compound 22] | 1.35 | 2160 | 8.5
18 | 23 (STSQSWQR; not fully specified (N-terminus)) [compound 23] | 1.33 | 31720 | 9.4
19 | 24 (STSQTWQR; not fully specified (N-terminus)) [compound 24] | 1.20 | 126353 | 0.0
20 | 25 (SPSQQWQR; not fully specified (N-terminus)) [compound 25] | 1.66 | 285265 | 2.1
21 | 26 (STSQQWQR; not fully specified (N-terminus)) [compound 26] | 1.15 | 64652 | 0.0
22 | 27 (KPSQPWQR; not fully specified (N-terminus)) [compound 27] | 1.07 | 12615 | 72.3
23 | 28 (SKSQPWQR; not fully specified (N-terminus)) [compound 28] | 1.13 | 4324 | 42.2
